{
  "source": "patent US11123341B2",
  "about": "“Butyrylcholinesterase inhibitors for treatment of opioid use disorder” (priority 2019, dated 2021)",
  "key": {"[1]": {"tested_on": "heroin-induced hyperactivity", "assay": "Locomotor activity test of heroin-induced hyperactivity", "assay_type": "in vivo, mice", "conditions": "10 mg/kg IV, 10 min prior to heroin 2.5 mg/kg IP; n=8", "procedure": "(§1) All mice were allowed ad libitum access to food and water and maintained on a 12 h light/12 h dark cycle, with the lights on at 8:00 a.m. at a room temperature of 21-22° C. Experiments were performed in a same colony room in accordance with the Guide for the Care and Use of Laboratory Animals as adopted and promulgated by the National Institutes of Health. The animal protocol was approved by the IACUC (Institutional Animal Care and Use Committee) at the University of Kentucky."}, "[2]": {"tested_on": "heroin-induced lethality", "assay": "Protection of mice against acute toxicity (lethality) of a lethal dose of heroin", "assay_type": "in vivo", "conditions": "10 min before heroin 25 mg/kg IV, n=6", "procedure": "as §1\nHeroin-induced acute toxicity was characterized in this study by the occurrence of death. […] Following the heroin administration, mice were immediately placed in containers for observation. The presence or absence of death was recorded for 6 hours following heroin administration.\n(§2) Heroin-induced acute toxicity was characterized by the lethality (occurrence of death). For the protection experiments, a single dose of ethopropazine was administrated (IV) prior to administration of a lethal dose (LD100) of heroin (e.g. 25 mg/kg, IV). At 10 min after IV administration of ethopropazine or saline (negative control), the mice were given a lethal dose (LD100) of heroin. The protection experiments were performed under various dose conditions (n=6 for each scenario)."}, "[3]": {"molecular_target": "BChE (Homo sapiens, UniProt P06276)", "sequence (P06276 29-602)": "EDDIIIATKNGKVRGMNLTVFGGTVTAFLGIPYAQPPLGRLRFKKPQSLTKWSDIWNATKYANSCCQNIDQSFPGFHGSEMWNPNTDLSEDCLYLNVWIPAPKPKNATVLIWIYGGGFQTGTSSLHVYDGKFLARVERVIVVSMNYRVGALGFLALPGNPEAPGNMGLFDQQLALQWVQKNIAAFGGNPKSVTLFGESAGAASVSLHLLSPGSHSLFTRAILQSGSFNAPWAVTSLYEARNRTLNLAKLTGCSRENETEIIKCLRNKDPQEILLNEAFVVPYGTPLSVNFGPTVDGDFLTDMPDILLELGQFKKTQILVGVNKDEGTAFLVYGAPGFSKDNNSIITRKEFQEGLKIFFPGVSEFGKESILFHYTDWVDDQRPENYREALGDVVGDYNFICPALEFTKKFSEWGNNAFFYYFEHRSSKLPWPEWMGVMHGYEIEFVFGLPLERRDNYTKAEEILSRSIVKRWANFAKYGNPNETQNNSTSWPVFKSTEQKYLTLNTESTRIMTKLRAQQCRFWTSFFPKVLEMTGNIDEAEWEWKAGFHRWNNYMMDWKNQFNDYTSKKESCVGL", "conditions": "read-out: IC50 for BChE; cited from earlier work"}, "[4]": {"conditions": "1 mg/kg IV", "procedure": "as §2"}},
  "data": [
    {"smiles": "CCN(CC)C(C)CN1c2ccccc2Sc2ccccc21", "note": "(stereo not drawn) [ethopropazine]", "values": [
      {"measurement": "effect on heroin-induced hyperactivity (total distance traveled)", "setting": "[1]", "value": "significantly attenuated heroin-induced hyperactivity"},
      {"measurement": "protection against heroin-induced lethality", "setting": "[2]; ethopropazine 1 mg/kg IV", "value": "partial protection"},
      {"measurement": "protection against heroin-induced lethality", "setting": "[2]; ethopropazine 10 mg/kg IV", "value": "protected all mice"},
      {"measurement": "IC50", "setting": "[3]", "value": "210 to 300", "unit": "nM"}
    ]},
    {"smiles": "O=C1CC[C@@]2(O)[C@H]3Cc4ccc(O)c5c4[C@@]2(CCN3CC2CC2)[C@H]1O5", "note": "[naltrexone]", "values": [
      {"measurement": "protection against heroin-induced lethality", "setting": "[2]; naltrexone 0.3 mg/kg IV", "value": "partial protection"},
      {"measurement": "adverse effect observed in mice", "setting": "[4]", "value": "not able to stand and could hardly move at all"}
    ]}
  ]
}
